Measured values: US10961189B2, “Spiro-lactam NMDA receptor modulators and uses thereof” (Aptinyx Inc., priority 2016, dated 2021)
Read-outs that look alike come from different tables or passages of the source.

Experiments:
NMDAR2A = molecular target: T1, NMDAR2A (Homo sapiens, UniProt Q12879); assay: [3H]MK-801 binding in NMDAR expressing HEK cell membranes (facilitation of NMDAR activation); assay type: biochemical; settings: 50 μM glutamate; for EC50: read-out: B: log EC50 (converted); for Emax: 0.25 h, read-out: A: % maximal [3H]MK-801 binding relative to 1 mM glycine
T1 construct: expressed in transfected cells; host or cells: HEK cells (membrane extract)
Procedure: (§1) Assays were conducted as described by Moskal et al., “GLYX-13: a monoclonal antibody-derived peptide that acts as an N-methyl-D-aspartate receptor modulator,” Neuropharmacology, 49, 1077-87, 2005. These studies were designed to determine if the test compounds act to facilitate NMDAR activation in NMDAR2A, NMDAR2B, NMDAR2C or NMDAR2D expressing HEK cell membranes as measured by increases in [^3H]MK-801 binding.
(§2) In the assay, 300 μg of NMDAR expressing HEK cell membrane extract protein was preincubated for 15 minutes at 25° C. in the presence of saturating concentrations of glutamate (50 μM) and varying concentrations of test compound (1×10^15M−1×10^−7M), or 1 mM glycine. Following the addition of 0.3 μCi of [^3H]MK-801 (22.5 Ci/mmol), reactions were again incubated for 15 minutes at 25° C. (nonequilibrium conditions). Bound and free [^3H]MK-801 were separated via rapid filtration using a Brandel apparatus.
(§3) In analyzing the data, the DPM (disintegrations per minute) of [^3H]MK-801 remaining on the filter were measured for each concentration of test compound or for 1 mM glycine. The DPM values for each concentration of a ligand (N=2) were averaged. The baseline value was determined from the best fit curve of the DPM values modeled using the GraphPad program and the log(agonist) vs. response (three parameters) algorithm was then subtracted from all points in the dataset. The % maximal [^3H]MK-801 binding was then calculated relative to that of 1 mM glycine: all baseline subtracted DPM values were divided by the average value for 1 mM glycine. The EC50 and % maximal activity were then obtained from the best fit curve of the % maximal [^3H]MK-801 binding data modelled using the GraphPad program and the log(agonist) vs. response (three parameters) algorithm.
(§4) The tables below summarize the results for the wild type NMDAR agonists NMDAR2A, NMDAR2B, NMDAR2C, and NMDAR2D, and whether the compound is not an agonist (−), is an agonist (+), or is a strong agonist (++), where column A is based on the % maximal [^3H]MK-801 binding relative to 1 mM glycine (−=0; <100%=+; and >100%=++); and column B is based on log EC50 values (0=−; ≥1×10^−9 M (e.g., −8)=+; and <1×10^−9 M (e.g., −10)=++).

NMDAR2B = molecular target: T2, NMDAR2B (Homo sapiens, UniProt Q13224); assay: as above; assay type: biochemical; settings: 50 μM glutamate; for Emax: 0.25 h, read-out: A: % maximal [3H]MK-801 binding relative to 1 mM glycine; for EC50: read-out: B: log EC50 (converted)
T2 construct: expressed in transfected cells; host or cells: HEK cells (membrane extract)
Procedure: as §1, §2, §3, §4

IV pharmacokinetics = assay type: in vivo, Sprague Dawley rats; settings: rat, normal saline (* in 5% NMP, 5% Solutol HS, 90% normal saline); for AUC(0-t) / half-life / C0 / Vd: Sprague-Dawley, in vivo; for C0: read-out: C0; for Vd: read-out: Vss
Source text: The table below summarizes the results of the IV pharmacokinetics.

[1] = oral pharmacokinetics (plasma, brain, CSF); assay type: in vivo, Sprague Dawley rats; settings: rat, per os 10 mg/kg; for AUC(0-t) / bioavailability / Tmax / Cmax: Sprague-Dawley, plasma, po; for Tmax: normal saline (* in 5% NMP, 5% Solutol HS, 90% normal saline), read-out: Tmax; for Cmax: read-out: Cmax
Procedure: In another experiment, Sprague Dawley rats were dosed per os using a normal saline formulation containing 10 mg/kg of the compounds identified in the table below (except for the compounds marked with an asterisk (“*”) that were delivered in 5% NMP, 5% Solutol® HS and 90% normal saline formulation). Plasma, brain, and CSF samples were analyzed at various time points over a 24 hour period.

T2 sequence (Q13224 27-1484, species assumed, other chains not shown): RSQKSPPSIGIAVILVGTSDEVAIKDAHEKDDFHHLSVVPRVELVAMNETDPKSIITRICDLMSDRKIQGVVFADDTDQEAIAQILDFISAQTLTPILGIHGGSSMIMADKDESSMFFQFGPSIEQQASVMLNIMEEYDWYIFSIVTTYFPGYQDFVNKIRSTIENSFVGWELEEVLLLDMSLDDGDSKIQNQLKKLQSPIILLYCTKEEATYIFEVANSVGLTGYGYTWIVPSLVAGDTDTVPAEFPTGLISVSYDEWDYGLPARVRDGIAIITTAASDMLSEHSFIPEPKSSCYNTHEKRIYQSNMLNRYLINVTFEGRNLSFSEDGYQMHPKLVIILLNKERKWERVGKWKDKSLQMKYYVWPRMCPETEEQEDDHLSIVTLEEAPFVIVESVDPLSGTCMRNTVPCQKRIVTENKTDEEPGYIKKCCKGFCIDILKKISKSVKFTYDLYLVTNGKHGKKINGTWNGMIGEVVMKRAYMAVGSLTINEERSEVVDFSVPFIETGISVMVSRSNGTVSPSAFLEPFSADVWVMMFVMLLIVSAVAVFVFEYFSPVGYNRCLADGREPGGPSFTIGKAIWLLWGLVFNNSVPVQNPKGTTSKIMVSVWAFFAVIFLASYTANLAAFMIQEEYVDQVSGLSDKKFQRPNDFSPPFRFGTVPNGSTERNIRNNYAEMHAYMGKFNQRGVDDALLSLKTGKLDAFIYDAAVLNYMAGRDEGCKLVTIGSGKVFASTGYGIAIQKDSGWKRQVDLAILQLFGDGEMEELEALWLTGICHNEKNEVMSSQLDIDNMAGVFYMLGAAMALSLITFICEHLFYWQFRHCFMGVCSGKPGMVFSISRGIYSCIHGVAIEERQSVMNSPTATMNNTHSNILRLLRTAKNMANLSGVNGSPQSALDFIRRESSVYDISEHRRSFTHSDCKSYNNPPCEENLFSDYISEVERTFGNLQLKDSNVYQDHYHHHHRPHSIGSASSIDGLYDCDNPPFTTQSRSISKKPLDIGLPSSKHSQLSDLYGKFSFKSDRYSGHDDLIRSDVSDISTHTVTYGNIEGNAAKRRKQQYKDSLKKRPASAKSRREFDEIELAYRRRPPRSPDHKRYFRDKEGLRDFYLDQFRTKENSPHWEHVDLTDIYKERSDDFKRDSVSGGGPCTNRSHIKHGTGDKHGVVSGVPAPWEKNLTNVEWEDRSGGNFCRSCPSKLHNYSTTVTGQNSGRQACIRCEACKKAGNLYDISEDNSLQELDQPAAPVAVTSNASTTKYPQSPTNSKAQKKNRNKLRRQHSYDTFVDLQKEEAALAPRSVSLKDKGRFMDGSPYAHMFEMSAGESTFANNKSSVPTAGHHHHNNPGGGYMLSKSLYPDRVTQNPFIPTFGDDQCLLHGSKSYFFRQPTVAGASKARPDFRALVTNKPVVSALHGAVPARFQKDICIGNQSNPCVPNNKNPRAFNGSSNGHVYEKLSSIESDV
T1 sequence (Q12879 23-1464, species assumed, other chains not shown): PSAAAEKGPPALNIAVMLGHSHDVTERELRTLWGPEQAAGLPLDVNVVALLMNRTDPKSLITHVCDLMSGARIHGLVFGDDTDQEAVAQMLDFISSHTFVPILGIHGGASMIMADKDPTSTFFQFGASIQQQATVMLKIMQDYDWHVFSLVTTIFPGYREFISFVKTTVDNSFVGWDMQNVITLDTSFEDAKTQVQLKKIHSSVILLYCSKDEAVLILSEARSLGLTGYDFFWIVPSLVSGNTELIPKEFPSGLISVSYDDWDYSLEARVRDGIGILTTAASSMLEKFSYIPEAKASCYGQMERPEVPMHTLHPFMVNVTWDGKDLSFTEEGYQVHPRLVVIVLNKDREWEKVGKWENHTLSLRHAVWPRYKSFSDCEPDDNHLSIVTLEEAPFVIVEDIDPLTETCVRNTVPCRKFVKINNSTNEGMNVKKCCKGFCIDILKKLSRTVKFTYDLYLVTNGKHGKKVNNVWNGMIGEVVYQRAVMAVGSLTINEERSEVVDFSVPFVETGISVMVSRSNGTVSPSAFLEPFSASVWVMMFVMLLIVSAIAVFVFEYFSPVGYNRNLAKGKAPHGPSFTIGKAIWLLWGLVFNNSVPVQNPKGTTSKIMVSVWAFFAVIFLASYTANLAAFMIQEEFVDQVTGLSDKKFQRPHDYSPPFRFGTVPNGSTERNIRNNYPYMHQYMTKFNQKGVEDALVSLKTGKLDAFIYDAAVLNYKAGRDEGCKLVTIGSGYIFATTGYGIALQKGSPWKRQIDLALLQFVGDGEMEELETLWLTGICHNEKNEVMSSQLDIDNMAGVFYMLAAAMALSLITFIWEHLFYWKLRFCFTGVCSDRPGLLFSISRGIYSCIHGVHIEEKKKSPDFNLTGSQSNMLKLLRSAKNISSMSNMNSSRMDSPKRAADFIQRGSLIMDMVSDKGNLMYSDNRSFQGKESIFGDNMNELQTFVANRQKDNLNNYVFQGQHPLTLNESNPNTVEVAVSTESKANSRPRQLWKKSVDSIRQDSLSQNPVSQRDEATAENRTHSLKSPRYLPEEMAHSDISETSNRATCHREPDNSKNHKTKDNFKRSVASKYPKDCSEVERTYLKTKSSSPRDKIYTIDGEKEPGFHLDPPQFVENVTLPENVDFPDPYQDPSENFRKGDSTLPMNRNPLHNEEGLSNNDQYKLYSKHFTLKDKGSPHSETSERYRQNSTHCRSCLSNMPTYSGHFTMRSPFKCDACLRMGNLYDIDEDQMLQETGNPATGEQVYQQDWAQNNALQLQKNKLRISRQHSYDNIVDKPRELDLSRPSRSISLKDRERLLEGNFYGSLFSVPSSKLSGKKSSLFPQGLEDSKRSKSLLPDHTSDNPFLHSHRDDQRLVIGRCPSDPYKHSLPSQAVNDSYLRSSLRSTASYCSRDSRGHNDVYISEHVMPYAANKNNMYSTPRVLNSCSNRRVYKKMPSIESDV

SMILES	EC50 (NMDAR2A) [nM]	Emax (NMDAR2A) [%]	Emax (NMDAR2B) [%]	CI (IV pharmacokinetics; intravenous 2 mg/kg) [mL/min/kg]	CSF Cmax [1] [ng/mL]	Brain Cmax [1] [ng/mL]	A: % maximal [3H]MK-801 binding relative to 1 mM glycine (NMDAR2A)	A: % maximal [3H]MK-801 binding relative to 1 mM glycine (NMDAR2B)	EC50 (NMDAR2B) [nM]	also measured
CC1CCC2(CC1)CN([C@H](C(N)=O)[C@@H](C)O)C2=O (mixture of isomers) [Compound AN, (2S,3R)-3-hydroxy-2-(7-methyl-1-oxo-2-azaspiro[3.5]nonan-2-yl)butanamide]	< 1	< 100	0	22.44	1384.82	1501.76				AUC(0-t) (IV pharmacokinetics; iv, 2 mg/kg): 1470 ng·h/mL; half-life (IV pharmacokinetics; iv, 2 mg/kg): 19.2 min; C0 (IV pharmacokinetics; iv, 2 mg/kg): 3100 ng/mL; Vd (IV pharmacokinetics; iv, 2 mg/kg): 0.59 L/kg; AUC(0-t) ([1]; 10 mg/kg): 4850 ng·h/mL; bioavailability ([1]; 10 mg/kg): 66%; Tmax ([1]; 10 mg/kg): 15 min; Cmax ([1]; 10 mg/kg): 4330 ng/mL
COc1ccc(CN2CC3(CCC(OCc4ccccc4)CC3)C2=O)cc1 (single isomer, unassigned) [AE, 7-(benzyloxy)-2-(4-methoxybenzyl)-2-azaspiro[3.5]nonan-1-one]	< 1						+ (<100%=+)	− (−=0)		
COc1ccc(CN2CC3(CCC(OCc4ccccc4)CC3)C2=O)cc1 (single isomer, unassigned) [AF, 7-(benzyloxy)-2-(4-methoxybenzyl)-2-azaspiro[3.5]nonan-1-one]							− (−=0)	+ (<100%=+)	< 1	
CC1CCC2(CC1)CN(C(CCC(N)=O)C(N)=O)C2=O (single isomer, unassigned) [BE, 2-(7-methyl-1-oxo-2-azaspiro[3.5]nonan-2-yl)pentanediamide]			< 100				− (−=0)		< 1	
CC1CCC2(CC1)CN(C(CO)C(=O)O)C2=O (single isomer, unassigned) [EM, 3-hydroxy-2-(7-methyl-1-oxo-2-azaspiro[3.5]nonan-2-yl)propanoic acid]	< 1	< 100						− (−=0)		
CC1CCC2(CC1)CN(C(CO)C(=O)O)C2=O (single isomer, unassigned) [EN, 3-hydroxy-2-(7-methyl-1-oxo-2-azaspiro[3.5]nonan-2-yl)propanoic acid]	< 1			19.38	22	61	+ (<100%=+)	+ (<100%=+)	< 1	AUC(0-t) (IV pharmacokinetics; iv, 2 mg/kg): 1760 ng·h/mL; half-life (IV pharmacokinetics; iv, 2 mg/kg): 440 min; C0 (IV pharmacokinetics; iv, 2 mg/kg): 9440 ng/mL; Vd (IV pharmacokinetics; iv, 2 mg/kg): 1.16 L/kg; AUC(0-t) ([1]; 10 mg/kg): 2210 ng·h/mL; bioavailability ([1]; 10 mg/kg): 25%; Tmax ([1]; 10 mg/kg): 15 min; Cmax ([1]; 10 mg/kg): 1490 ng/mL
O=C1NCC12CCC(OCc1ccccc1)CC2 (stereo not shown) [AJ, 7-(benzyloxy)-2-azaspiro[3.5]nonan-1-one]		0	0							
O=C1NCC12CCC(O)CC2 (stereo not shown) [AK, 7-hydroxy-2-azaspiro[3.5]nonan-1-one]		0						− (−=0)		
COc1ccc(CN2CC3(CCC(C)CC3)C2=O)cc1 (stereo not shown) [Compound AC, 2-(4-methoxybenzyl)-7-methyl-2-azaspiro[3.5]nonan-1-one]		0	0							
C[C@@H](O)[C@@H](C(N)=O)N1CC2(CCC(O)CC2)C1=O (stereo partly drawn) [Compound AM, (2S,3R)-3-hydroxy-2-(7-hydroxy-1-oxo-2-azaspiro[3.5]nonan-2-yl)butanamide]		0	0							
CC1CCC2(CC1)CN(CC(N)=O)C2=O (stereo not shown) [Compound BC, 2-(7-methyl-1-oxo-2-azaspiro[3.5]nonan-2-yl)acetamide]	< 1	< 100	0	145.13	1362	2321				AUC(0-t) (IV pharmacokinetics; iv, 2 mg/kg): 233 ng·h/mL; half-life (IV pharmacokinetics; iv, 2 mg/kg): 13.2 min; C0 (IV pharmacokinetics; iv, 2 mg/kg): 658 ng/mL; Vd (IV pharmacokinetics; iv, 2 mg/kg): 2.67 L/kg; AUC(0-t) ([1]; 10 mg/kg): 612 ng·h/mL; bioavailability ([1]; 10 mg/kg): 52%; Tmax ([1]; 10 mg/kg): 15 min; Cmax ([1]; 10 mg/kg): 869 ng/mL
CC1CCC2(CC1)CN([C@@H](CCC(=O)O)C(=O)O)C2=O (stereo partly drawn) [EQ, (S)-2-(7-methyl-1-oxo-2-azaspiro[3.5]nonan-2-yl)pentanedioic acid]	< 1	< 100	0							
O=C1NCC12CCC(NCc1ccccc1)CC2 (stereo not shown) [EX]	< 1	< 100	> 100	50.52	459.46	2799.98			< 1	AUC(0-t) (IV pharmacokinetics; intravenous 2 mg/kg): 659 ng·h/mL; half-life (IV pharmacokinetics; intravenous 2 mg/kg): 70.8 min; C0 (IV pharmacokinetics; intravenous 2 mg/kg): 1340 ng/mL; Vd (IV pharmacokinetics; intravenous 2 mg/kg): 2.71 L/kg; bioavailability [1]: 100%; Tmax [1]: 120 min; AUC(0-t) [1]: 7380 ng·h/mL; Cmax [1]: 3190 ng/mL
CN(Cc1ccccc1)C1CCC2(CC1)CNC2=O (stereo not shown) [EY]			< 100	27.44	539.09	1833.34	− (−=0)		< 1	AUC(0-t) (IV pharmacokinetics; intravenous 2 mg/kg): 1210 ng·h/mL; half-life (IV pharmacokinetics; intravenous 2 mg/kg): 33.6 min; C0 (IV pharmacokinetics; intravenous 2 mg/kg): 2100 ng/mL; Vd (IV pharmacokinetics; intravenous 2 mg/kg): 1.09 L/kg; bioavailability [1]: 48%; Tmax [1]: 30 min; AUC(0-t) [1]: 2920 ng·h/mL; Cmax [1]: 1130 ng/mL
CN(Cc1ccccc1)C1CCC2(CC1)CNC2=O (stereo not shown) [EZ]	< 1						+ (<100%=+)	+ (<100%=+)	< 1	
CCN(Cc1ccccc1)C1CCC2(CC1)CNC2=O (stereo not shown) [FA]							− (−=0)	− (−=0)		
CCN(Cc1ccccc1)C1CCC2(CC1)CNC2=O (stereo not shown) [FB]	< 1			41.98	981.8	3632.82	+ (<100%=+)	+ (<100%=+)	< 1	AUC(0-t) (IV pharmacokinetics; intravenous 2 mg/kg): 782 ng·h/mL; half-life (IV pharmacokinetics; intravenous 2 mg/kg): 45 min; C0 (IV pharmacokinetics; intravenous 2 mg/kg): 981 ng/mL; Vd (IV pharmacokinetics; intravenous 2 mg/kg): 2.33 L/kg; bioavailability [1]: 87%; Tmax [1]: 30 min; AUC(0-t) [1]: 3410 ng·h/mL; Cmax [1]: 1590 ng/mL
O=C1N(OCc2ccccc2)CC12CCC(O)CC2 (stereo not shown) [FE]	< 1		0				+ (<100%=+)			
O=C1N(OCc2ccccc2)CC12CCC(O)CC2 (stereo not shown) [FF]							− (−=0)	− (−=0)		
